# Patent US20020128311A1, “Halocyanoacetamide antimicrobial compositions” (priority 2000, published 2002)
# How the values were obtained:
# Assay type in all cases: physicochemical
# [1] = Freeze/thaw stability of DCOIT/DBNPA/surfactant/GTA compositions, HPLC; settings: for % DBNPA retained after Freezing and Thawing: thawed at 25° C. 5 hours, three times
# Method: Samples were prepared to test the freeze/thaw stability of compositions of the present invention. The freeze/thaw test was conducted for compositions of […], surfactant and GTA prepared in Example 4. Samples (20 g each) were stored at -10° C. or -25° C. for 19 hours to be frozen; samples were then stored at 25° C. for 5 hours to be thawed. This sequence was repeated three times. Then the concentrations of active ingredients ([…]) in the compositions were determined by HPLC.
# [2] = Stability of CMIT and DBNPA mixtures in GTA, stored at 50° C., HPLC; settings: […]% CMIT/MIT mixture
# Method: Surfactants were TweenTM 20, TritonTM DF-12 or TritonTM CF-10. The compositions were stored at 50° C. for 4 weeks and the concentrations of active ingredients ([…]) in the compositions were determined by HPLC at the indicated time intervals.
# [3] = Stability of DBNPA in various solvents, stored at 60° C., HPLC; settings: for % DBNPA retained: 2.0 g DBNPA + 8.0 g solvent
# [4] = Stability of DCOIT and DBNPA mixtures in GTA, stored at 40° C., HPLC; settings: 4% DCOIT
# Method: […] […] Surfactants were TweenTM 20, TritonTM DF-12 or TritonTM CF-10. These compositions were stored at 40° C. for 6 weeks and the concentrations of active ingredients ([…]) in the compositions were determined by HPLC at the indicated time intervals.
smiles,measurement,setting,value
"N#CC(Br)(Br)C(N)=O [DBNPA, 2,2-dibromo-3-nitrilopropionamide]",% DBNPA retained after Freezing and Thawing,"[1]; Example 4 composition with Triton CF-10, frozen at −10° C. 19 hours",98.8%
same,% DBNPA retained after Freezing and Thawing,"[1]; Example 4 composition with Triton CF-10, frozen at −25° C. 19 hours",98.8%
same,% DBNPA retained after Freezing and Thawing,"[1]; Example 4 composition with Triton DF-12, frozen at −10° C. 19 hours",98.8%
same,% DBNPA retained after Freezing and Thawing,"[1]; Example 4 composition with Triton DF-12, frozen at −25° C. 19 hours",99%
same,% DBNPA retained after Freezing and Thawing,"[1]; Example 4 composition with Tween 20, frozen at −10° C. 19 hours",99.2%
same,% DBNPA retained after Freezing and Thawing,"[1]; Example 4 composition with Tween 20, frozen at −25° C. 19 hours",99.1%
same,physical stability (appearance) during freeze/thaw cycling,[1]; in GTA solutions in the presence of surfactants,"clear solution, no precipitation or phase separation observed"
same,% DBNPA retained,"[2]; 5% Triton CF-10, 45% GTA, 0 Time",100%
same,% DBNPA retained,"[2]; 5% Triton CF-10, 45% GTA, 1 Week",97%
same,% DBNPA retained,"[2]; 5% Triton CF-10, 45% GTA, 2 Weeks",93%
same,% DBNPA retained,"[2]; 5% Triton CF-10, 45% GTA, 3 Weeks",77%
same,% DBNPA retained,"[2]; 5% Triton CF-10, 45% GTA, 4 Weeks",69%
same,% DBNPA retained,"[2]; 5% Triton DF-12, 45% GTA, 0 Time",100%
same,% DBNPA retained,"[2]; 5% Triton DF-12, 45% GTA, 1 Week",98%
same,% DBNPA retained,"[2]; 5% Triton DF-12, 45% GTA, 2 Weeks",95%
same,% DBNPA retained,"[2]; 5% Triton DF-12, 45% GTA, 3 Weeks",73%
same,% DBNPA retained,"[2]; 5% Triton DF-12, 45% GTA, 4 Weeks",68%
same,% DBNPA retained,"[2]; 5% Tween 20, 45% GTA, 0 Time",100%
same,% DBNPA retained,"[2]; 5% Tween 20, 45% GTA, 1 Week",97%
same,% DBNPA retained,"[2]; 5% Tween 20, 45% GTA, 2 Weeks",71%
same,% DBNPA retained,"[2]; 5% Tween 20, 45% GTA, 3 Weeks",61%
same,% DBNPA retained,"[2]; 5% Tween 20, 45% GTA, 4 Weeks",54%
same,% DBNPA retained,"[2]; no surfactant, 50% GTA, 0 Time",100%
same,% DBNPA retained,"[2]; no surfactant, 50% GTA, 1 Week",98%
same,% DBNPA retained,"[2]; no surfactant, 50% GTA, 2 Weeks",90%
same,% DBNPA retained,"[2]; no surfactant, 50% GTA, 3 Weeks",85%
same,% DBNPA retained,"[2]; no surfactant, 50% GTA, 4 Weeks",78%
same,% retained,"[3]; after 4 weeks in glycol, amide, ether and ketone solvents",less than 50%
same,% DBNPA retained,"[3]; solvent 62% dipropylene glycol in water (comparative), 1 week",95%
same,% DBNPA retained,"[3]; solvent 62% dipropylene glycol in water (comparative), 4 weeks",20%
same,% DBNPA retained,"[3]; solvent 75% dipropylene glycol in water (comparative), 1 week",79%
same,% DBNPA retained,"[3]; solvent 86% dipropylene glycol in water (comparative), 1 week",49%
same,% DBNPA retained,"[3]; solvent GTA, 1 week",92%
same,% DBNPA retained,"[3]; solvent GTA, 2 weeks",100%
same,% DBNPA retained,"[3]; solvent GTA, 3 weeks",100%
same,% DBNPA retained,"[3]; solvent GTA, 4 weeks",100%
same,% DBNPA retained,"[3]; solvent PGMEA (comparative), 1 week",80%
same,% DBNPA retained,"[3]; solvent PGMEA (comparative), 2 weeks",65%
same,% DBNPA retained,"[3]; solvent PGMEA (comparative), 3 weeks",61%
same,% DBNPA retained,"[3]; solvent PGMEA (comparative), 4 weeks",45%
same,% DBNPA retained,"[3]; solvent diethyl phthalate, 1 week",100%
same,% DBNPA retained,"[3]; solvent diethyl phthalate, 2 weeks",98%
same,% DBNPA retained,"[3]; solvent diethyl phthalate, 3 weeks",98%
same,% DBNPA retained,"[3]; solvent diethyl phthalate, 4 weeks",98%
same,% DBNPA retained,"[3]; solvent dimethyl formamide (comparative), 1 week",73%
same,% DBNPA retained,"[3]; solvent dimethyl formamide (comparative), 2 weeks",46%
same,% DBNPA retained,"[3]; solvent ethyl acetate, 1 week",100%
same,% DBNPA retained,"[3]; solvent ethyl acetate, 2 weeks",100%
same,% DBNPA retained,"[3]; solvent ethyl acetate, 3 weeks",100%
same,% DBNPA retained,"[3]; solvent ethyl acetate, 4 weeks",100%
same,% DBNPA retained,"[3]; solvent methyl amyl ketone (comparative), 1 week",9%
same,% DBNPA retained,"[3]; solvent methyl amyl ketone (comparative), 2 weeks",12%
same,% DBNPA retained,"[3]; solvent methyl amyl ketone (comparative), 3 weeks",0%
same,% DBNPA retained,"[3]; solvent octyl pyrrolidone (comparative), 1 week",62%
same,% DBNPA retained,"[3]; solvent octyl pyrrolidone (comparative), 2 weeks",50%
same,% DBNPA retained,"[3]; solvent octyl pyrrolidone (comparative), 3 weeks",45%
same,% DBNPA retained,"[3]; solvent triethylene glycol dimethyl ether (comparative), 1 week",15%
same,% DBNPA retained,"[3]; solvent triethylene glycol dimethyl ether (comparative), 2 weeks",0%
same,% DBNPA retained,"[4]; 5% Triton CF-10, 66% GTA, 4 Weeks",93.5%
same,% DBNPA retained,"[4]; 5% Triton CF-10, 66% GTA, 6 Weeks",91.2%
same,% DBNPA retained,"[4]; 5% Triton CF-10, 66% GTA, Time 0",100.0%
same,% DBNPA retained,"[4]; 5% Triton DF-12, 66% GTA, 4 Weeks",92.3%
same,% DBNPA retained,"[4]; 5% Triton DF-12, 66% GTA, 6 Weeks",92.0%
same,% DBNPA retained,"[4]; 5% Triton DF-12, 66% GTA, Time 0",100.0%
same,% DBNPA retained,"[4]; 5% Tween 20, 66% GTA, 4 Weeks",93.3%
same,% DBNPA retained,"[4]; 5% Tween 20, 66% GTA, 6 Weeks",92.1%
same,% DBNPA retained,"[4]; 5% Tween 20, 66% GTA, Time 0",100.0%
